Source: PubChem BioAssay (NCI)
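Method: 48-hour compound exposure of cells in 96-well plates, five concentrations, linear interpolation of endpoints. TGI: concentration producing complete growth inhibition.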

Tests used:
Test in all cases: NCI-60 cell line screen, 48 h
NCI/ADR-RES ovarian = test system: NCI/ADR-RES ovarian
HOP-62 NSCLC = test system: HOP-62 NSCLC
DU-145 prostate = test system: DU-145 prostate
PC-3 prostate = test system: PC-3 prostate
SF-539 CNS = test system: SF-539 CNS
LOX IMVI melanoma = test system: LOX IMVI melanoma
SK-MEL-2 melanoma = test system: SK-MEL-2 melanoma
MDA-N = test system: MDA-N
786-0 renal = test system: 786-0 renal
SF-295 CNS = test system: SF-295 CNS
A549 NSCLC = test system: A549 NSCLC

Row | SMILES | TGI (NCI/ADR-RES ovarian) [µM] | TGI (HOP-62 NSCLC) [µM] | TGI (DU-145 prostate) [µM] | TGI (PC-3 prostate) [µM] | TGI (SF-539 CNS) [µM] | TGI (LOX IMVI melanoma) [µM] | TGI (SK-MEL-2 melanoma) [µM] | TGI (MDA-N) [µM] | TGI (786-0 renal) [µM] | TGI (SF-295 CNS) [µM] | TGI (A549 NSCLC) [µM]
1 | COc1ccc2c(c1)O[C@@H]1C(O)Oc3cc(OC)c(OC)cc3[C@]1(O)C2=O (some centres undefined) | > 100 | > 100 | > 100 | > 100 | > 100 | > 100 | > 100 | > 100 | > 100 | > 100 | > 100
2 | COc1ccc2nc3cc(Cl)ccc3c(NCCCCCC(=O)NC(COc3cnc4c(ccc5cccnc54)c3)COc3cnc4c(ccc5cccnc54)c3)c2c1 | > 100 | 35.8 | 23.4 | 26.8 | 53.5 | 86.4 | 41.5 | > 100 | 28.1 | 55.5 | > 100
3 | CC(=O)NNc1nc(C)c(C(/C=C/c2ccc3c(c2)OCO3)=N/Nc2ccccc2)s1 | > 100 | > 100 | > 100 | > 100 | > 100 | > 100 | > 100 | > 100 | > 100 | > 100 | > 100
4 | CCC(CCCN)Nc1cc(OC)cc2cccnc12 (centres undefined) | > 100 | > 100 | > 100 | > 100 | > 100 | > 100 | > 100 | > 100 | > 100 | > 100 | > 100
5 | Cc1ccc([N+](=O)[O-])cc1S(=O)(=O)Nc1ccc(C2=NN(c3ccc([N+](=O)[O-])cc3[N+](=O)[O-])C(c3ccccc3)C2)cc1 (centres undefined) | 49.4 | 33 | 38.9 | 28.8 | 50.8 | 32.2 | 33.7 | 35.5 | 30.3 | 35.9 | 96.6
6 | CC(C)/C(Cl)=N/OC(=O)Nc1ccc(F)c(Cl)c1 | 29.3 | 32.8 | 30.5 | 29.8 | 20.9 | 3.59 | 34.2 | 14.8 | 2.96 | 29.8 | 37.4
7 | c1ccc2c(-c3cnc(-c4c[nH]c5ccccc45)cn3)c[nH]c2c1 | > 100 | > 100 | > 100 | > 100 | 73.7 | 94.2 | > 100 | 50.3 | > 100 | 50.4 | > 100
8 | COc1ccc(N[C@H](CS(=O)c2ccc(C)cc2)c2ccc(F)cc2)cc1 (some centres undefined) | > 100 | > 100 | > 100 | > 100 | 56.7 | > 100 | > 100 | > 100 | > 100 | > 100 | > 100
9 | CC(=O)O/C=C\OC1CCCC1(c1ccccc1)c1ccccc1 (centres undefined) | 8.53 | 25.4 | 13.7 | 9.15 | 3.68 | 3.14 | 12.5 | 5 | 7.75 | 23 | 43.8
10 | C=CC(=O)N1C/C(=C\c2ccc(N(C)C)cc2)C(=O)/C(=C/c2ccc(N(C)C)cc2)C1 | > 100 | > 100 | > 100 | > 100 | > 100 | > 100 | > 100 | 78.7 | > 100 | > 100 | > 100
11 | CC(C)Oc1c(-c2c(OC(C)C)c(=O)c2=O)c(=O)c1=O | 26.8 | > 85.2 | > 100 | > 100 | > 100 | > 47.1 | > 89.1 | > 38.6 | > 66 | > 100 | > 100
12 | Cc1cn(C2CC(n3cc(Cn4cc(F)c(=O)[nH]c4=O)nn3)C(CO)O2)c(=O)[nH]c1=O (centres undefined) | > 100 | > 100 | > 100 | > 100 | > 100 | > 100 | > 100 | > 100 | > 100 | > 100 | > 100
13 | Cc1ccc(F)cc1NC(=O)O/N=C(\Cl)C(C)C | 27.2 | 37.2 | 33.5 | 33.4 | 18.1 | 4.79 | 35.4 | 11.8 | 15.7 | > 61.1 | 38.2
14 | O=C(NCCN(CCNC(=O)c1cccc(=O)n1O)CCN(CCNC(=O)c1cccc(=O)n1O)CCNC(=O)c1cccc(=O)n1O)c1cccc(=O)n1O | > 100 | > 100 | > 100 | > 100 | > 100 | > 100 | > 100 | > 100 | > 100 | > 100 | > 100
